In patent US4595678A, “N-substituted pseudo-aminosugars and pharmaceutical compositions containing same” (Takeda Chemical Industries, Ltd., priority 1982, dated 1986):

system: α-glucoside hydrolase (α-glucosidase); assay: α-glucoside hydrolase / α-glucosidase inhibitory activity, in words; assay type: biochemical; conditions: found by the inventors

Question: Which “α-glucoside hydrolase suppressing / α-glucosidase inhibitory activity” value does the source give for N[C@H]1C[C@H](CO)[C@@H](O)[C@H](O)[C@H]1O [validamine] here?
Answer: possesses a highly valuable action of suppressing the function of α-glucoside hydrolase

system: α-glucoside hydrolase (α-glucosidase); assay: not given; conditions: earlier reports; cited from earlier work

Question: Which “α-glucoside hydrolase suppressing / α-glucosidase inhibitory activity” value does the source give for C[C@H]1O[C@H](O[C@@H]2[C@H](O)[C@H](O)[C@@H](O[C@@H]3[C@H](O)[C@@H](O)[C@@H](O[C@@H]4[C@H](O)[C@H](O)[C@@H](O[C@H]5O[C@@H](CO)[C@H](O)[C@H](O)[C@H]5O)O[C@@H]4CO)O[C@@H]3CO)O[C@H]2CO)[C@H](O)[C@@H](O)[C@@H]1N[C@H]1C=C(CO)[C@@H](O[C@H]2O[C@H](CO)[C@H](O[C@H]3O[C@H](C)[C@@H](N[C@H]4C=C(CO)[C@@H](O)[C@H](O)[C@H]4O)[C@H](O)[C@H]3O)[C@H](O)[C@H]2O)[C@H](O)[C@H]1O (stereo in doubt) [Trestatin A] here?
Answer: far from being satisfactory

Question: For C[C@H]1O[C@H](O[C@@H]2[C@H](O)[C@@H](O)[C@@H](O[C@@H]3[C@H](O)[C@@H](O)[C@@H](O[C@@H]4[C@H](O)[C@H](O)[C@@H](O[C@H]5O[C@H](CO)[C@H](O)[C@H](O)[C@H]5O)O[C@@H]4CO)O[C@@H]3CO)O[C@H]2CO)[C@@H](O)[C@@H](O)[C@@H]1N[C@@H]1C=C(CO)[C@@H](O)[C@@H](O)[C@@H]1O (stereo in doubt) [Trestatin B], which “α-glucoside hydrolase suppressing / α-glucosidase inhibitory activity” value is on record?
Answer: far from being satisfactory

Question: For C[C@H]1O[C@H](O[C@H]2[C@H](O)[C@@H](O)[C@@H](O[C@H]3[C@H](O)[C@@H](O)C(O)O[C@@H]3CO)O[C@@H]2CO)[C@H](O)[C@@H](O)[C@@H]1N[C@H]1C=C(CO)[C@@H](O)[C@H](O)[C@H]1O (stereo partly shown) [Acarbose], which “α-glucoside hydrolase suppressing / α-glucosidase inhibitory activity” value is on record?
Answer: far from being satisfactory

Question: With C[C@H]1O[C@H](O[C@H]2[C@H](O)[C@@H](O)[C@@H](O[C@H]3[C@H](O)[C@@H](O)[C@@H](O[C@H]4[C@H](O)[C@@H](O)[C@@H](O[C@H]5O[C@H](CO)[C@@H](O)[C@H](O)[C@H]5O)O[C@@H]4CO)O[C@@H]3CO)O[C@@H]2CO)[C@H](O)[C@@H](O)[C@@H]1N[C@H]1C=C(CO)[C@@H](O[C@H]2O[C@H](CO)[C@@H](O[C@H]3O[C@H](C)[C@@H](NC4C=C(CO)[C@@H](O[C@H]5O[C@H](CO)[C@@H](O[C@H]6O[C@H](C)[C@@H](NC7C=C(CO)[C@@H](O)[C@H](O)[C@H]7O)[C@H](O)[C@H]6O)[C@H](O)[C@H]5O)[C@H](O)[C@H]4O)[C@H](O)[C@H]3O)[C@H](O)[C@H]2O)[C@H](O)[C@H]1O (stereo partly shown) [Trestatin C] as the compound, how does the “α-glucoside hydrolase suppressing / α-glucosidase inhibitory activity” value read?
Answer: far from being satisfactory

Question: With N[C@H]1C=C(CO)[C@@H](O)[C@H](O)[C@H]1O [valienamine] as the compound, how does the “α-glucoside hydrolase suppressing / α-glucosidase inhibitory activity” value read?
Answer: possesses an action of suppressing the function of α-glucoside hydrolase

Question: With N[C@H]1C[C@](O)(CO)[C@@H](O)[C@H](O)[C@H]1O [valiolamine, 1L(1S)-(1(OH),2,4,5/1,3)-5-amino-1-hydroxymethyl-1,2,3,4-cyclohexanetetraol] as the compound, how does the “α-glucoside hydrolase suppressing / α-glucosidase inhibitory activity” value read?
Answer: possesses α-glucosidase inhibitory activity
